Legend:
CYP3A4 [1] = molecular target: T1, CYP3A4 (Homo sapiens, UniProt P08684); experiment: CYP3A4 inhibition in pooled human liver microsomes (testosterone 6β-hydroxylation); assay type: in vitro ADME
T1 construct: Pooled HLMs were obtained from BD Bioscience (Woburn, USA); tissue BD Bioscience; host or cells: pooled human liver microsomes
Experimental: (§1) The investigation was conducted in pool human liver microsomes in vitro. Except for the HLMs treated with 100 μM obtusofolin, specific inhibitors, and negative control HLMs were also employed.
(§2) The incubation volume was 200 μL containing potassium phosphate buffer (pH 7.4), an NADPH-generating system composed of NADP^+, glucose-6-phosphate, glucose-6-phosphate dehydrogenase, and MgCl2, probe substrates, HLMs, and obtusofolin or positive inhibitors. The experiments for each CYP isoforms were performed in triplicate and the obtained results were represented as mean value ± SD.
(§3) The reactions were initiated by adding the NADPH-generating system after a 3-min preincubation at 37 °C. The reactions were terminated by adding 100 μL acetonitrile or 10% (v:v) trichloroacetic. The mixture was placed on ice and centrifuged at 12,000 rpm for 10 min. A total of 20 μL supernatant was obtained for the analysis of metabolites by HPLC.
(§4) Firstly, 100 μM obtusofolin was incubated with the above incubation system in HLMs to evaluate its effect on the activity of CYP450s. Then the dose-dependent experiments were performed to obtain corresponding parameters in the presence of 0, 2.5, 5, 10, 25, 50, and 100 μM obtusofolin. The concentrations of probe substrates were 20–100 μM testosterone for CYP3A4, 5–20 μM diclofenac for CYP2C9, and 25–250 μM chlorzoxazone for CYP2E1.
(§5) The enzyme kinetic parameters were obtained by the least-squares linear regression. The inhibition data were fitted with non-linear regression according to the following equation: V=VmaxS/Km1+I/Ki+Sfor competitive inhibitionCYP2C9 and 2E1; V=VmaxS/Km+S1+I/Kifor non−competitive inhibitionCYP3A4.
(§6) where I is the concentration of the compound, Ki is the inhibition constant, S is the concentration of the substrate and Km is the substrate concentration at half the maximum velocity (Vmax) of the reaction. The mechanism of the inhibition was inspected using the Lineweaver–Burk plots and the enzyme inhibition models. The data comparison was performed using the Student’s t-test and performed using IBM SPSS statistics 20 (SPSS Inc., Chicago, IL, USA).

CYP2C9 [2] = molecular target: T2, CYP2C9 (Homo sapiens, UniProt P11712); experiment: CYP2C9 inhibition in pooled human liver microsomes (diclofenac 4′-hydroxylation); assay type: in vitro ADME
T2 construct: Pooled HLMs were obtained from BD Bioscience (Woburn, USA); tissue BD Bioscience; host or cells: pooled human liver microsomes
Experimental: as §1, §2, §3, §4, §5, §6

CYP2E1 [3] = molecular target: T3, CYP2E1 (Homo sapiens, UniProt P05181); experiment: CYP2E1 inhibition in pooled human liver microsomes (chlorzoxazone 6-hydroxylation); assay type: in vitro ADME
T3 construct: Pooled HLMs were obtained from BD Bioscience (Woburn, USA); tissue BD Bioscience; host or cells: pooled human liver microsomes
Experimental: as §1, §2, §3, §4, §5, §6

CYP3A4 [4] = molecular target: T1, CYP3A4; experiment: Time-dependent inhibition of CYP3A4 in pooled HLMs; assay type: in vitro ADME
Experimental: (§7) The time-dependent inhibition experiments were conducted at the incubation time of 0, 5, 10, 15, and 30 min at 37 °C with 20 μM obtusofolin. After the incubation, a total of 20 μL aliquot was transferred to another tube with the NADPH-generating system and probe substrates and incubation for a specific time. The reactions were terminated by the addition of acetonitrile and placed on ice for further analysis.
The time-dependent characteristic was estimated by the values of KI and Kinact obtained from further experiments. The incubation was performed with 0, 2, 5, 10, 20, and 50 μM obtusofolin and a higher concentration of substrates (approximately 4-fold to Km) for 0, 5, 10, 15, and 30 min. The incubation scheme was performed as described above. The fitting equation to obtain the value of KI and Kinact was: 1/Kobs=KI/Kinact∗1/I+1/Kinact
where Kobs is the pseudo-first-order rate constant of inactivation at inactivated concentration [I], Kinact is the maximum inactivation rate (a theoretical value that cannot be experimentally observed), and KI is the inactivated concentration when the rate of inactivation reaches half of Kinact.

CYP2C9 [5] = molecular target: T2, CYP2C9; experiment: Time-dependent inhibition of CYP2C9 in pooled HLMs; assay type: in vitro ADME; conditions: 20 μM obtusofolin, 5 to 30 min
Experimental: as §7

CYP2E1 [6] = molecular target: T3, CYP2E1; experiment: Time-dependent inhibition of CYP2E1 in pooled HLMs; assay type: in vitro ADME; conditions: 20 μM obtusofolin, 5 to 30 min
Experimental: as §7

[7] = design: method as in PMID 33119923; conditions: rats, 1.3 mg/kg obtusofolin; cited from earlier work
[8] = 100 μM obtusofolin, pooled HLMs, P < 0.05 vs negative control
[9] = Lineweaver–Burk plots, best fit
[10] = pooled HLMs, 0, 2.5, 5, 10, 25, 50, 100 μM obtusofolin, mean ± SD, triplicate

T2 sequence (P11712 whole entry): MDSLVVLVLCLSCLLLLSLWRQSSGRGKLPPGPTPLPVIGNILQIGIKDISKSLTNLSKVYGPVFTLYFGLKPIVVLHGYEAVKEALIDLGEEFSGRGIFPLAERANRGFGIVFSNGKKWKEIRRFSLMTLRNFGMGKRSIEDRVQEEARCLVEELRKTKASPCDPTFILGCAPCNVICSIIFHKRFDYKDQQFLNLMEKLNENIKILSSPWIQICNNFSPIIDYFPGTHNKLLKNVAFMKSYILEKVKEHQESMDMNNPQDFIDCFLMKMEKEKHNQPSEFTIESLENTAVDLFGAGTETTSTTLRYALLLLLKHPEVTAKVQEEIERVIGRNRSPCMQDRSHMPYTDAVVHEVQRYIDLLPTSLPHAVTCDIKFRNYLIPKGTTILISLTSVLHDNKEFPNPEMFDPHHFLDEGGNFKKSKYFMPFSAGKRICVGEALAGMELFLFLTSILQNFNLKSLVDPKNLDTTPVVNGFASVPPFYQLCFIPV
T3 sequence (P05181 whole entry): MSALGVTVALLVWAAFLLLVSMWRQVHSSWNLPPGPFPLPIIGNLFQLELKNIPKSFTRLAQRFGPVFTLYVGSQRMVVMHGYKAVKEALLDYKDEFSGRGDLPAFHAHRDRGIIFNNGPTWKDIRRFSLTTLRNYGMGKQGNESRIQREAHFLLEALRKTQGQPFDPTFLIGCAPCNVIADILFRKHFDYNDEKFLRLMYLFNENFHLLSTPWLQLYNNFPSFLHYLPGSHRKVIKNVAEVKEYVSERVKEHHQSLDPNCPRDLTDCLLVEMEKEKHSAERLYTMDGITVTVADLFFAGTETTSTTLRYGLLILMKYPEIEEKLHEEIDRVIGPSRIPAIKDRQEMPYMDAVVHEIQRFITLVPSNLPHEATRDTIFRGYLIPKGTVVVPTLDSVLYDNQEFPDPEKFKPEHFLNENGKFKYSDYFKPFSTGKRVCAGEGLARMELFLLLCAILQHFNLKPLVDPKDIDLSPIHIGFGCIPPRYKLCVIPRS
T1 sequence (P08684 whole entry): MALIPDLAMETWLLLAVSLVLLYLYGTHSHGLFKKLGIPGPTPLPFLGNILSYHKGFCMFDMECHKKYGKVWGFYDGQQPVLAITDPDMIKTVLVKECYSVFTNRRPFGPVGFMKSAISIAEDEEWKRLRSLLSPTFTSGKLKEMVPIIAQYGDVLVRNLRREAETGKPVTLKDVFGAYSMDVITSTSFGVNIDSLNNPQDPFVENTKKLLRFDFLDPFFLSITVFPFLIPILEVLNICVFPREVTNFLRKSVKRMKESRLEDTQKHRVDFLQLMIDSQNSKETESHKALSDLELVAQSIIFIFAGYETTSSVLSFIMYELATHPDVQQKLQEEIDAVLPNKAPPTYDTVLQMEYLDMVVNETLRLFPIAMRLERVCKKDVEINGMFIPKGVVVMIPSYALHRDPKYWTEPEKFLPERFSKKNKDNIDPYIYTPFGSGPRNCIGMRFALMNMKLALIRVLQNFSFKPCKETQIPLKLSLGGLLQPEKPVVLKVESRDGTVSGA

COc1c(O)c(C)cc2c1C(=O)c1c(O)cccc1C2=O [obtusofolin]
activity of CYP3A4 (CYP3A4 [1]; [8]): significantly suppressed
inhibition model of CYP3A4 (CYP3A4 [1]; [9]): non-competitive
Ki (CYP3A4 [1]; non-competitive model, 20–100 μM testosterone, pooled HLMs): 8.82 µM
IC50 (CYP3A4 [1]; [10]): 17.1 ± 0.25 µM
activity of CYP2C9 (CYP2C9 [2]; [8]): significantly suppressed
inhibition model of CYP2C9 (CYP2C9 [2]; [9]): competitive
Ki (CYP2C9 [2]; competitive model, 5–20 μM diclofenac, pooled HLMs): 5.54 µM
IC50 (CYP2C9 [2]; [10]): 10.8 ± 0.13 µM
activity of CYP2E1 (CYP2E1 [3]; [8]): significantly suppressed
inhibition model of CYP2E1 (CYP2E1 [3]; [9]): competitive
Ki (CYP2E1 [3]; competitive model, 25–250 μM chlorzoxazone, pooled HLMs): 7.79 µM
IC50 (CYP2E1 [3]; [10]): 15.5 ± 0.16 µM
inhibitory effect on CYP3A4 versus incubation time (CYP3A4 [4]; 20 μM obtusofolin, 5 to 30 min): increased with the incubation time
kinact (CYP3A4 [4]; human, pooled human liver microsomes, 0, 2, 5, 10, 20, 50 μM obtusofolin, 0-30 min, substrate approx. 4-fold Km): 0.000858 s⁻¹
CYP3A4 inactivated per minute (CYP3A4 [4]; saturating concentration of obtusofolin): approximately 5.15%
inhibitory effect on CYP2C9 versus incubation time (CYP2C9 [5]): not affected
inhibitory effect on CYP2E1 versus incubation time (CYP2E1 [6]): not affected
maximum (plasma concentration) [7]: 152.5 ± 62.3 ng/mL

Source: paper PMC8411522, “In vitro inhibitory effect of obtusofolin on the activity of CYP3A4, 2C9, and 2E1” (BMC Complementary Medicine and Therapies, 2021)
